From PubChem BioAssay AID292 (DTP/NCI, 2004)
Where “and” joins values, the source holds several entries; their conditions need not be identical. Equal values may be shown once. Inconclusive results and toxic doses are left out. Rule for the calls: active = survival T/C of 150% or more; inactive = T/C below 125% in these data.

System: B6C3F1 mice, ip Sarcoma M5076, median survival T/C
Test: NCI In Vivo Anticancer Drug Screen. Data for tumor model Sarcoma M5076 (intraperitoneal) in B6C3F1 mice
Conditions: endpoint: median survival time, schedule: Q04DX004 (ip), higher = longer survival
Experimental: The antitumor activity of compounds was measured in mice bearing transplantable tumors. Survival or tumor size were measured and the results are expressed as the measurement made in the treated group (T) divided by the measurement made in the vehicle treated control group (C). The tumor model used in this assay is Sarcoma M5076 (intraperitoneal) in B6C3F1 mice

[1] = dose: 50.0 mg/kg/injection, vehicle: water
[2] = dose: 100.0 mg/kg/injection, vehicle: water
[3] = dose: 12.5 mg/kg/injection, vehicle: saline with Tween-80
[4] = dose: 25.0 mg/kg/injection, vehicle: saline with Tween-80
[5] = dose: 50.0 mg/kg/injection, vehicle: saline with Tween-80
[6] = dose: 100.0 mg/kg/injection, vehicle: saline with Tween-80
[7] = dose: 50.0 mg/kg/injection, vehicle: saline
[8] = dose: 100.0 mg/kg/injection, vehicle: saline
[9] = dose: 200.0 mg/kg/injection, vehicle: saline
[10] = dose: 400.0 mg/kg/injection, vehicle: saline
[11] = dose: 37.5 mg/kg/injection, vehicle: saline with Tween-80
[12] = dose: 75.0 mg/kg/injection, vehicle: saline with Tween-80
[13] = dose: 150.0 mg/kg/injection, vehicle: saline with Tween-80
[14] = dose: 300.0 mg/kg/injection, vehicle: saline with Tween-80

Measured: T/C

c1cc2c(c(CC3CO3)c1CC1CO1)OCCOCCOCCOCCO2 (stereo not given)
inactive: dose: 25.0 mg/kg/injection, vehicle: saline + alcohol 107 % of control | dose: 50.0 mg/kg/injection, vehicle: saline + alcohol 108 % of control | dose: 100.0 mg/kg/injection, vehicle: saline + alcohol 111 % of control | dose: 200.0 mg/kg/injection, vehicle: saline + alcohol 120 % of control

O=C1NC(=O)C23CCCCc4cccc(c42)C(=O)C13 (stereo not given)
inactive: dose: 25.0 mg/kg/injection, vehicle: water 103 % of control | [1] 103 % of control | [2] 107 % of control | dose: 200.0 mg/kg/injection, vehicle: water 103 % of control | dose: 400.0 mg/kg/injection, vehicle: water 106 % of control

N#Cc1c(N)[nH]c2ccc(Sc3ccccc3)cc12
inactive: dose: 6.25 mg/kg/injection, vehicle: saline with Tween-80 101 % of control | [3] 112 % of control | dose: 15.0 mg/kg/injection, vehicle: saline with Tween-80 108 % of control | [4] 109 % of control | dose: 30.0 mg/kg/injection, vehicle: saline with Tween-80 97 % of control | dose: 36.0 mg/kg/injection, vehicle: saline with Tween-80 104 % of control | [5] 114 % of control | dose: 60.0 mg/kg/injection, vehicle: saline with Tween-80 95 % of control and 104 % of control | [6] 116 % of control | dose: 120.0 mg/kg/injection, vehicle: saline with Tween-80 110 % of control | dose: 240.0 mg/kg/injection, vehicle: saline with Tween-80 113 % of control

NC(Cc1ccc[se]1)C(=O)O (stereo not given)
inactive: [3] 94 % of control | [4] 103 % of control | [5] 109 % of control

CCOC1NC(=O)Oc2ccccc21 (stereo not given)
inactive: dose: 50.0 mg/kg/injection, vehicle: Klucel (hydroxypropylcellulose) (HPC) 107 % of control | dose: 100.0 mg/kg/injection, vehicle: Klucel (hydroxypropylcellulose) (HPC) 100 % of control | dose: 200.0 mg/kg/injection, vehicle: Klucel (hydroxypropylcellulose) (HPC) 99 % of control | dose: 400.0 mg/kg/injection, vehicle: Klucel (hydroxypropylcellulose) (HPC) 121 % of control

O=C1CN(CCN2CC(=O)N(CN3CCOCC3)C(=O)C2)CC(=O)N1CN1CCOCC1
inactive: [1] 97 % of control | [2] 109 % of control

Nc1ncc(C2OC(CO)C(O)C2O)c(=O)[nH]1 (stereo not given)
inactive: dose: 25.0 mg/kg/injection, vehicle: saline 106 % of control | [7] 104 % of control | [8] 103 % of control | [9] 96 % of control | [10] 100 % of control

COc1cc2c(c3c1c(=O)c1ccccc1n3C)C=C([N+](=O)[O-])C(C)(C)O2
inactive: dose: 25.0 mg/kg/injection, vehicle: saline + Tween-80 + alcohol 104 % of control | dose: 50.0 mg/kg/injection, vehicle: saline + Tween-80 + alcohol 90 % of control

CCOC(=O)c1c(C(=O)OC)nc2n1-c1ccccc1OC2
inactive: dose: 31.25 mg/kg/injection, vehicle: saline with Tween-80 100 % of control | dose: 62.0 mg/kg/injection, vehicle: saline with Tween-80 103 % of control | dose: 125.0 mg/kg/injection, vehicle: saline with Tween-80 100 % of control | dose: 250.0 mg/kg/injection, vehicle: saline with Tween-80 88 % of control | dose: 500.0 mg/kg/injection, vehicle: saline with Tween-80 96 % of control

ClC1(Cl)Cc2ccccc21
inactive: [5] 103 % of control | [6] 114 % of control | dose: 200.0 mg/kg/injection, vehicle: saline with Tween-80 92 % of control | dose: 400.0 mg/kg/injection, vehicle: saline with Tween-80 87 % of control

CC1C(C#N)C(=O)NC(=O)C1C#N (stereo not given)
inactive: [7] 100 % of control | [8] 104 % of control | [9] 97 % of control | [10] 97 % of control | dose: 800.0 mg/kg/injection, vehicle: saline 102 % of control

CCOC(=O)/C=C1\CCC(C)n2c1nccc2=O (stereo not given)
inactive: [11] 102 % of control | [12] 86 % of control | [13] 96 % of control | [14] 101 % of control | dose: 600.0 mg/kg/injection, vehicle: saline with Tween-80 106 % of control

Cc1nc2c(cnn2C)cc1CCc1ccccc1
inactive: dose: 18.75 mg/kg/injection, vehicle: saline with Tween-80 99 % of control | [11] 101 % of control | [12] 99 % of control | [13] 99 % of control | [14] 90 % of control

CCOc1ccc(C(C)c2cc3c(cc2OC)OCO3)cc1 (stereo not given)
inactive: dose: 62.5 mg/kg/injection, vehicle: distilled water + Tween-80 99 % of control and 102 % of control | dose: 125.0 mg/kg/injection, vehicle: distilled water + Tween-80 102 % of control and 124 % of control | dose: 250.0 mg/kg/injection, vehicle: distilled water + Tween-80 117 % of control

Cc1noc2nc(-c3ccccc3)cc(N3CCN(C)CC3)c12
inactive: dose: 25.0 mg/kg/injection, vehicle: other 95 % of control | dose: 50.0 mg/kg/injection, vehicle: other 105 % of control | dose: 100.0 mg/kg/injection, vehicle: other 99 % of control | dose: 200.0 mg/kg/injection, vehicle: other 97 % of control

CC[C@](C)(O)C(=O)O[C@H]1C(=O)O[C@@H]2C[C@H]3C(C)=CC(=O)[C@@H](O)[C@]3(C)[C@H]3[C@@]4(O)OC[C@]32[C@@H]1[C@@H](C)[C@H]4O
inactive: dose: 0.03 mg/kg/injection, vehicle: saline 102 % of control | dose: 0.06 mg/kg/injection, vehicle: saline 117 % of control | dose: 0.25 mg/kg/injection, vehicle: saline 100 % of control

CCCC1CCC(=C2C(=O)CCC2=O)O1 (stereo not given)
inactive: [4] 101 % of control | [5] 95 % of control | [6] 96 % of control

COC1C(O)CC(OC2CC(Oc3cc4cc5c(c(O)c4c(O)c3C)C(=O)[C@@H](OC3CC(OC4CC(OC6CC(C)(O)C(OC(C)=O)C(C)O6)C(O)C(C)O4)C(O)C(C)O3)[C@H]([C@H](OC)C(=O)[C@@H](O)[C@@H](C)O)C5)OC(C)C2OC(C)=O)OC1C (stereo not given in full)
inactive: dose: 37.5 micrograms/kg/injection, vehicle: water 110 % of control | dose: 75.0 micrograms/kg/injection, vehicle: water 111 % of control
